The values that follow come from US9724328B2, “Methods and compositions for treatment of lipid storage disorders” (NEUROTROPE BIOSCIENCE, priority 2014, dated 2017).

Molecules are shown by their SMILES.

The test system of experiment [1] is human NPC1 fibroblasts (NPC1 3123). The experiment in a line: Soluble vimentin levels by Western blot after fatty acid treatment. Format: cell-based. The settings on record: for soluble vimentin in NPC1 cells: discussion statement, FIG. 5, concentration not given; for levels of soluble vimentin in cell lysates: human NPC1 fibroblasts, 50 μg/ml, 48 hours (FIG. 5 legend: 24 hrs). As to the method:
The human wild-type fibroblast (GM05387), NPClo fibroblast (GM09341), and NPC1 fibroblast (GM03123) cell lines were obtained from Coriell Cell Repositories (Camden, N.J.). The M12 Chinese hamster ovary (CHO) cell line and its wild-type parental line were obtained and cultured. Fibroblast cell lines were cultured in DMEM, and CHO cells were cultured in DMEM/F12 (50:50) medium, supplemented with 10% FBS, 2 mM L-glutamine, and 50 μg/ml gentamicin in a humidified incubator at 37° C. with 5% CO2.
Transfected cells were harvested with PBS containing 2 mM EDTA at 2 days post-transfection. Soluble and insoluble cell fractions were prepared as described previously. Briefly, to obtain the soluble/cytoplasmic fraction, cells were incubated on ice for 30 min in cold “phospho” buffer [150 mM NaCl, 20 mM NaF, 100 μM Na3VO4, 20 mM Hepes, pH 7.5), 1% (v/v) Igepal, 10% (v/v) glycerol, and 1 μL/20 mg tissue of protease inhibitor cocktail] and then centrifuged for 20 min at 14,000 rpm at 4° C.; the clear supernatant was frozen in aliquots at a concentration of 1 μg/μl. The pellet (insoluble fraction) was washed 3 times in ice-cold PBS containing 2 mM EDTA and then resuspended in a volume of “Triton” buffer [PBS, 1% (w/v) SDS, and 0.1% (v/v) Triton X-100] equal to the “phospho” buffer. This solution was boiled for 10 min and sonicated until the solution became clear. The protein concentration of this fraction was adjusted to 1 μg/μl according to the protein concentrations determined for the soluble/cytoplasmic fraction. Protein concentrations were determined using the fluorescamine method as we have described. 4-12% Bis-Tris precast gel (Invitrogen, Carlsbad, Calif.) and then transferred onto a Protran membrane using an XCell II apparatus (Invitrogen, Carlsbad, Calif.) according to the manufacturer's instructions. Blots were processed as described previously.
On the technique in general: Immunoblotting shows a protein as a band on a membrane.

Another experiment has as its system M12 NPC1 CHO cells. The experiment is described as follows: Cholesterol esterification assay ([3H] oleate). In kind it is cell-based, Chinese hamster. To be noted: 50 μg/ml fatty acid for 2 days followed by expression of PKC ε. How it is done: The preparation of [^3H] oleate substrate and esterification assays were performed as previously described. Cells were treated with 50 μg/ml fatty acid for 2 days and then transfected with PKE α or PKC ε for 24 hrs before esterification assays. All values were generated in triplicate and normalized for total cell protein.

The next experiment has as its system human NPC1 3123 cells. The experiment is described as follows: Sphingolipid transport, BODIPY-LacCer staining. Format: cell-based. To be noted: 48 hours. The source says: For filipin staining in transfected cells, cells were transfected with PKC or Rab9 using Fugene 6 according to the manufacturer's recommendations. After 48 hrs, cells were stained with filipin as we have previously described. Cells were mounted onto slides using Fluoromount-G (SouthernBiotech, Birmingham, Ala.) and analyzed on a Nikon Eclipse microscope fitted with a charge-coupled-device camera (Nikon, Melville, N.Y.). Images were acquired with MetaVue software and then deconvoluted using AutoDeblur software from AutoQuant Imaging, Inc (Troy, N.Y.). For quantitation of filipin fluorescence, cells were seeded at 3×10^5 cells/well in 6-well dishes and allowed to settle overnight, after which the medium was replaced with medium containing 10% lipoprotein deficient serum (LPDS) for 4 days. Cells were incubated with oleic/linoleic acids for 48 hours, DCPLA/DHA for 24 hrs, or diazoxide for 72 hrs before fixing and staining with filipin as we have previously described. Images were acquired using the same exposure time for all samples. Fluorescence intensity was determined using the integrated intensity function of MetaVue software; at least 150 cells were quantitated for each sample and each experiment was repeated 3 times. For analysis of sphingolipid transport, cells were incubated with oleic/linoleic acids, DCP-LA, or PMA for 48 hours before BODIPY-LacCer staining was performed as previously described.

A further experiment deals with NPC3-SV cells. The experiment is described as follows: Stored cholesterol by filipin staining in NPC3-SV cells. In kind it is cell-based, Human. To be noted: for clearance of cholesterol (stored cholesterol levels): 48 h, FIG. 8. How it is done: (§1) Cells are plated in 6-well dishes and treated with the appropriate compound (dissolved in DMSO) at the indicated dose daily for 48 hrs. Control cells receive DMSO. After 48 hrs cells are transferred to cover slips with fresh compound and grown for another 24 hrs. Cover slips are collected and processed for microscopy.
(§2) Filipin: For detection of unesterified cholesterol in lysosomes, cells were fixed in formalin for 30 min at 4° C., washed 2×, 5 min in 0.9% NaCl, incubated for 45 min with 0.01% filipin in PBS at room temperature, and then washed 2×, 5 min. Fluorescence was observed using a Nikon Eclipse fluorescence microscope (Nikon, Melville, N.Y.) equipped with a CCD camera. Fluorescence signals were quantified using Nikon's imaging and quantitation software package NIS Elements, v. 3.22.

The subject of a further experiment is C57Bl6 NPC1 mice. The experiment is described as follows: Survival of C57Bl6 NPC1 mice dosed IP twice weekly. Format: in vivo, mouse. As to the method:
A total of […] C57Bl6 NPC1 mice, mixed sex, were used. These mice were separated into 5 groups of 5 mice each, Groups 1-5.
Bryostatin 1 (purity≧95%) from Aphios (Woburn, Mass.), 1 vial 2 mg, was solubilized in a 5% DMSO, 20% Solutol and 75% Saline solution and used as the study drug. The negative (vehicle) control is a 5% DMSO, 20% Solutol and 75% Saline solution. DCP-LA from Sigma-Aldrich: 5 mg oil/vial was used as an additional in vitro active compound. Bryostatin 1 (API) was stored at or below −20° C. and formulated as needed. The formulated bryostatin 1 was stored at 2° to 8° C. for less than 24 hour(s). The DCP-LA and the vehicle controls were stored at 2°-8° C.
The stock solution of bryostatin 1 is 10 mg/ml in DMSO, which is kept at −80° C. in aliquots. The dosing formulation is made by diluting the stock first in DMSO, then adding solutol, and lastly saline—with more insoluble compounds, adding the drug stock to complete vehicle will cause the compound to come out of solution, so we make formulations stepwise. The dosing volume is always 100 μl. Mice weigh approximately 20 g.
The mice are dosed twice weekly (Mon and Thu) starting at 30 days for up to 150 days.
C57 NPC1 mice have an average life span of ˜110 days. By Day 70 mice reach an average weight of 18-22 grams. Untreated NPC1 mice develop ataxia and will begin to lose weight at ˜70 days (see FIG. 17). Ataxia (or lack of voluntary muscle control) is a clinical feature of NPC1 mice, which may be described as shaking. Treatment will be initiated at ˜30 days of age, average NPC mouse weight of 10 g. If the drug is efficacious injections will continue past day 70-80. An extension of life of about 20-30% will mean that animals will need to be treated up to day 130-150.

The test system of experiment [2] is NPC24-SV cells. The experiment is described as follows: Glycosphingolipid accumulation by VTB staining in NPC24-SV cells. In kind it is cell-based, Human. The settings on record: 0.1 nM.
Experiment [3] deals with NPC24-SV cells. The experiment in a line: Cholesterol accumulation by filipin staining in NPC24-SV cells. In kind it is cell-based, Human. As to the method: as §1, §2
A further experiment deals with NPC cells. The settings on record: earlier study [5]; cited from earlier work.
The test system of another experiment is NPC3SV cells. Format: cell-based, Human. To be noted: FIG. 12, concentration not given.

As for `CCCCCCCC/C=C\CCCCCCCC(=O)O` [oleic acid, cis-9-octadecenoic acid], in experiment [1], the “soluble vimentin in NPC1 cells” value is reported as “increase of soluble vimentin” and the “levels of soluble vimentin in cell lysates” value is “significantly increases the amount of soluble vimentin”. For the same compound, the “cholesterol esterification levels over untreated cells” value with M12 NPC1 CHO cells was about 3.5 fold. The “BODIPY-LacCer transport to the trans-Golgi network” value (“BODIPY-LacCer transport” for short) with human NPC1 3123 cells (2 μg/ml) is reported as “the lipid can be seen in the TGN”.

For `CC1=NS(=O)(=O)c2cc(Cl)ccc2N1` [diazoxide], the “clearance of cholesterol (stored cholesterol levels)” value (from here on “clearance of cholesterol”) in the experiment on NPC3-SV cells was “able to induce clearance of cholesterol”.

As for `CCC/C=C/C=C/C(=O)O[C@H]1/C(=C/C(=O)OC)C[C@H]2C[C@H]([C@@H](C)O)OC(=O)C[C@H](O)C[C@@H]3C[C@H](OC(C)=O)C(C)(C)[C@](O)(C[C@@H]4C/C(=C/C(=O)OC)C[C@H](/C=C/C(C)(C)[C@]1(O)O2)O4)O3` [bryostatin 1], the “clearance of cholesterol” value in the experiment on NPC3-SV cells is on record as “able to induce clearance of cholesterol”. The stored cholesterol levels entry in the experiment on NPC3-SV cells (72 h, FIG. 9) is given as “activity in the nanomolar concentration range”. The “age that mice lived past” value in the experiment with C57Bl6 NPC1 mice (10 μg/kg IP twice weekly from 30 days of age), in the experiment with C57Bl6 NPC1 mice (20 μg/kg IP twice weekly from 30 days of age) and in the experiment on C57Bl6 NPC1 mice (30 μg/kg IP twice weekly from 30 days of age) was over 100 days in each case. Also, the “effect in sphingolipid assay” value in the experiment on NPC24-SV cells [2] was “no effect”. Moreover, the “effect in cholesterol assay” value in the experiment on NPC24-SV cells [3] (0.1 nM, NPC24-SV cells) was “no effect”. In addition, the cholesterol clearance result in the experiment with NPC24-SV cells [3] (10 nM, NPC24-SV cells, FIG. 11) was “able to effect cholesterol clearance”. Further, the “concentration showing a positive therapeutic effect” value with NPC24-SV cells [3] (human NPC1 disease cells, summary of Example 2) lay in the range of 10 to 100 nM.

Consider `CCCCCCCCCCCCCC(=O)O[C@@H]1[C@@H](C)[C@@]2(O)[C@@H](C=C(CO)C[C@]3(O)C(=O)C(C)=C[C@@H]23)[C@@H]2C(C)(C)[C@]12OC(C)=O` [PMA, phorbol-12-myristate-13-acetate], for which, in the experiment with NPC cells, the “NPC lipid storage phenotype” value is recorded as “ameliorated the NPC lipid storage phenotype” and the “levels of soluble vimentin” value is “increased levels of soluble vimentin”. For the same compound, the “BODIPY-LacCer transport” value in the experiment with human NPC1 3123 cells (100 nM) is reported as “the lipid can be seen in the TGN”.

Consider `CCCCCC1CC1CC1CC1CCCCCCCC(=O)O` (centres unmarked) [DCP-LA, 8-[2-(2-pentyl-cyclopropylmethyl)-cyclopropyl]-octanoic acid], for which the “clearance of cholesterol” value in the experiment with NPC3-SV cells is given as “able to induce clearance of cholesterol”. The “soluble vimentin in NPC1 cells” value in experiment [1] was “increase of soluble vimentin”. Besides, in the experiment with NPC3SV cells, the ganglioside transport block entry is “release the ganglioside transport block”. Moreover, the filipin accumulation entry in the experiment with NPC24-SV cells [3] (NPC24-SV cells, FIG. 11, concentration not given) is reported as “decrease filipin accumulation”. The “BODIPY-LacCer transport” value in the experiment on human NPC1 3123 cells (20 μM) is given as “the lipid can be seen in the TGN”.

Turning to `CCCCC/C=C\C/C=C\CCCCCCCC(=O)O` [linoleic acid], in experiment [1], the “soluble vimentin in NPC1 cells” value is reported as “increase of soluble vimentin” and the “levels of soluble vimentin in cell lysates” value is reported as “significantly increases the amount of soluble vimentin”. Further, in the experiment with M12 NPC1 CHO cells, the “cholesterol esterification levels over untreated cells” value was about 3.5 fold. Besides, the “BODIPY-LacCer transport” value in the experiment with human NPC1 3123 cells (2 μg/ml) is recorded as “the lipid can be seen in the TGN”.
